Where two headings read alike, the source gives them in different places. Marks after values point to notes of the source that are not given here.
Columns and labels:
[1] = tested on: PrP^Sc in dividing ScN2a-cl3 cells; test: cells; format: cell-based, mouse; settings: for EC50: Mus musculus
in vivo = settings: female, FVB, mouse, po, 10 mg/kg, Cmax ± SD
in vitro = settings: mouse
[2] = tested on: PrP^Sc in stationary-phase ScN2a-cl3 cells; format: cell-based, mouse
[3] = tested on: PrP^Sc in stationary-phase cells; settings: cited from earlier work
PrP^Sc in dividing cells = settings: cited from earlier work
[4] = read-out: EC50 in dividing cells (text and footnote)

## CN1CCc2cccc3c2[C@H]1Cc1ccc(O)c(O)c1-3 [Apomorphine, reference compound]
[1]; read-out: EC50 ± SEM (antiprion activity by ELISA)
  EC50: > 10000 nM

## c1cncc(-c2nc(-c3c[nH]c4ccccc34)cs2)c1 [IND24350]
[1]; [4]
  EC50: < 1000 nM

## Dextran [reference compound]
[1]
  EC50 ± SEM (antiprion activity by ELISA): 0.40 ± 0.08 (mg/L)
  antiprion potency in dividing cells: good potency

## Enoxaparin [reference compound]
[1]
  EC50 ± SEM (antiprion activity by ELISA): >10 (mg/L)
Dividing ScN2a-cl3 cells
  LC50 ± SEM (cell viability by calcein): >10 (mg/L)

## COc1cc(N)c(-c2ccc3cc(OC)c(OC)cc3n2)cc1OC [IND44355]
[1]; [4]
  EC50: > 1000 nM

## COc1cccc(Nc2nc(N)c3ccccc3n2)c1 [IND35916]
[1]; [4]
  EC50: > 1000 nM

## COc1ccc2cc1Oc1ccc(cc1)C[C@H]1c3cc(c(OC)cc3CCN1C)Oc1c(OC)c(OC)cc3c1[C@H](C2)N(C)CC3 [Tetrandine]
Dividing ScN2a-cl3 cells
  CC50: 5000 to 6100 nM

## CN1CCN(c2ccc(Nc3ccnc4cc(Cl)ccc34)cc2)CC1 [IND45193]
In vivo; brain
  Cmax: 1610 ± 230 nM
In vivo; plasma
  Cmax: 130 ± 10 nM
[1]; [4]
  EC50: > 1000 nM

## CC(NCCC(c1ccccc1)c1ccccc1)c1ccccc1 (stereo not shown) [Fendiline]
In vitro
  EC50: 4300 to 9600 nM

## COc1ccc(CCNC(=O)c2sc3nc(-c4cccs4)ccc3c2N)cc1OC [IND42103]
[1]
  antiprion potency in dividing cells: inactive

## Nc1c(/N=N/c2ccc(-c3ccc(/N=N/c4cc(S(=O)(=O)[O-])c5ccccc5c4N)cc3)cc2)cc(S(=O)(=O)[O-])c2ccccc12.[Na+].[Na+] [Congo Red, reference compound]
[1]
  antiprion potency in dividing cells: good potency
[1]; [4]
  EC50: ~400 nM
Dividing ScN2a-cl3 cells
  effect on cell viability: no effects on cell viability

## N#Cc1sc2nc(-c3ccc4c(c3)OCO4)ccc2c1N [IND52851]
In vivo; brain
  Cmax: 1020 ± 710 nM
In vivo; plasma
  Cmax: 410 ± 250 nM

## OCCNCc1cc(Br)ccc1OCc1ccc(Cl)cc1Cl [IND34452]
[1]; [4]
  EC50: > 1000 nM

## CCOc1ccc(/N=N/c2ccc(N)cc2N)cc1 [Ethoxazine]
Dividing ScN2a-cl3 cells
  CC50: > 10000 nM

## COc1ccc2cc3c(N)c(C(=O)Nc4ccc(C(C)=O)cc4)sc3nc2c1 [IND52025]
[1]; [4]
  EC50: < 1000 nM

## COc1ccc(-c2nc3cc(NC(=O)c4ccc(OCc5ccccc5)cc4)ccc3o2)cc1 [IND114202]
[1]; [4]
  EC50: < 1000 nM

## COc1ccc(-c2cc(-c3ccc(OC)cc3O)[nH]n2)cc1 [IND25807]
[1]; [4]
  EC50: < 1000 nM

## Cn1c(=N)n(CC(=O)c2ccc(Br)cc2)c2ccccc21 [IND44723]
[1]; [4]
  EC50: > 1000 nM

## CC(=O)c1ccc(NC(=O)c2sc3nc4c(cc3c2N)CCCC4)cc1 [IND24609]
[1]
  antiprion potency in dividing cells: inactive

## Cc1ccc2[nH]c3c(c2c1)CCCC3NCCCN(C)C (stereo not shown) [IND23308]
[2]
  Reduction (%) Stationary PrP^Sc: 94 ^c %
  percent reduction in PrP^Sc in the HTS: 70%
Dividing ScN2a-cl3 cells
  effect on cell viability: no effect on cell viability

## Cn1c(=N)n(CC(=O)c2ccc(Cl)cc2)c2ccccc21 [IND26326]
[1]; [4]
  EC50: > 1000 nM

## COc1cc(CNCCO)cc(Br)c1OCc1ccccc1Cl [IND46380]
[1]; [4]
  EC50: > 1000 nM

## CCN(CC)CCCC(C)Nc1c2ccc(Cl)cc2nc2ccc(OC)cc12 (stereo not shown) [quinacrine]
[3]
  activity in stationary-phase cells: relatively ineffective
PrP^Sc in dividing cells
  activity in dividing cells: rapidly cleared

## CCOc1ccc(NC(=O)c2cc3ccccc3cc2O)cc1 [IND31751]
[1]; [4]
  EC50: < 1000 nM

## CN(C)CCNc1nc(-c2ccc(Cl)cc2)nc2ccccc12 [IND34921]
[1]; [4]
  EC50: > 1000 nM

## COc1ccccc1OCCNCC(O)COc1cccc2[nH]c3ccccc3c12 (stereo not shown) [Carvedilol]
In vitro
  CC50: 5000 to 6100 nM

## COc1ccc(C(=O)Nc2ccc(-c3csc(C)n3)cc2)cc1 [IND33145]
[1]; [4]
  EC50: < 1000 nM
